Assay results as given in paper PMC9525273 (Nature Communications, 2022).
Several values for one entry are separate records, joined by “and”; a condition that tells them apart may be missing. Equal values may be shown once. Read-outs that look alike come from different tables or passages of the source.

Assays:
Test in all cases: P. falciparum proliferation assay (72 h, fluorescent DNA-intercalating dye)
Assay type in all cases: cell-based, Plasmodium falciparum
Dd2 parasites = tested on: Dd2 parasites
Method: (§1) For experiments with all other parasites, the effects of compounds of interest on parasite proliferation was measured in 96-well plates containing serial dilutions of the compounds in culture medium, with a fluorescent DNA-intercalating dye used to detect surviving parasites. The assays were initiated with erythrocytes infected with predominantly ring-stage parasites, and the starting parasitaemia and haematocrit were both 1%.

[1] = tested on: Dd2-PfATP4^T418N,P990R parasites
Method: as §1

Dd2-Polδ parasites = tested on: Dd2-Polδ parasites
Method: as §1

[2] = tested on: Dd2-Polδ-PfATP4^G358S parasites
Method: as §1

[3] = tested on: HCR1 parasites (highly cipargamin-resistant clone 1); settings: Plasmodium falciparum
Method: as §1

[4] = tested on: HCR2 parasites (highly cipargamin-resistant clone 2); settings: Plasmodium falciparum
Method: as §1

## N#Cc1cc(NC(=O)[C@H]2c3ccccc3C(=O)N(CC(F)(F)F)[C@@H]2c2cccnc2)ccc1F [(+)-SJ733]
Dd2 parasites; Plasmodium falciparum, DD2, read-out: IC50 values, Dd2, single experiments, source data of Fig. 2 (nM in Supplementary Table 1)
  IC50: 58.3 nM
Dd2 parasites; Plasmodium falciparum, DD2, read-out: IC50 values, MEAN, Dd2, MEAN, source data of Fig. 2
  IC50: 59.6 nM
Dd2 parasites; Plasmodium falciparum, DD2, read-out: Mean IC50 value ± SEM for growth inhibition, Dd2, Supplementary Table 1, Set 1
  IC50: 60 ± 2 nM
Dd2 parasites; read-out: IC50 values, Dd2, single experiments, source data of Fig. 2 (nM in Supplementary Table 1)
  IC50: 66.6 nM and 57.7 nM and 59 nM and 56.4 nM
[1]; Dd2-PfATP4T418N,P990R, single experiments, source data of Fig. 2 (nM in Supplementary Table 1), read-out: IC50 values
  IC50: 359 nM and 293 nM and 333 nM and 337 nM
[1]; Plasmodium falciparum, DD2, Dd2-PfATP4T418N,P990R, MEAN, source data of Fig. 2, read-out: IC50 values, MEAN
  IC50: 331 nM
[1]; Plasmodium falciparum, DD2, Dd2-PfATP4T418N,P990R, single experiments, source data of Fig. 2 (nM in Supplementary Table 1), read-out: IC50 values
  IC50: 334 nM
[1]; Plasmodium falciparum, DD2, read-out: Mean IC50 value ± SEM for growth inhibition, Dd2-PfATP4T418N,P990R, Supplementary Table 1, Set 1
  IC50: 331 ± 11 nM
Dd2-Polδ parasites; Dd2-Polδ, single experiments, source data of Fig. 2 (nM in Supplementary Table 1), read-out: IC50 values
  IC50: 30.9 nM and 37.1 nM and 51.3 nM
Dd2-Polδ parasites; Plasmodium falciparum, DD2, Dd2-Polδ, MEAN, source data of Fig. 2, read-out: IC50 values, MEAN
  IC50: 40.7 nM
Dd2-Polδ parasites; Plasmodium falciparum, DD2, Dd2-Polδ, single experiments, source data of Fig. 2 (nM in Supplementary Table 1), read-out: IC50 values
  IC50: 43.6 nM
[2]; Dd2-Polδ-PfATP4G358S, single experiments, source data of Fig. 2 (nM in Supplementary Table 1), read-out: IC50 values
  IC50: 11800 nM and 8860 nM and 8730 nM
[2]; Plasmodium falciparum, DD2, Dd2-Polδ-PfATP4G358S, MEAN, source data of Fig. 2, read-out: IC50 values, MEAN
  IC50: 9070 nM
[2]; Plasmodium falciparum, DD2, Dd2-Polδ-PfATP4G358S, single experiments, source data of Fig. 2 (nM in Supplementary Table 1), read-out: IC50 values
  IC50: 6890 nM
[2]; Plasmodium falciparum, DD2, SET-2, read-out: Mean IC50 value ± SEM for growth inhibition, Dd2-Polδ-PfATP4G358S, Supplementary Table 1, Set 2
  IC50: 9070 nM
[3]; HCR1, MEAN, source data of Fig. 2, read-out: IC50 values, MEAN
  IC50: 21500 nM
[3]; read-out: Mean IC50 value ± SEM for growth inhibition, HCR1, Supplementary Table 1, Set 1
  IC50: 21500 nM
[4]; HCR2, MEAN, source data of Fig. 2, read-out: IC50 values, MEAN
  IC50: 17600 nM
[4]; read-out: Mean IC50 value ± SEM for growth inhibition, HCR2, Supplementary Table 1, Set 1
  IC50: 17600 nM
